Results as given in patent US6585953B2, “Synthesis of 17F labeled fluoroalkanes” (Wisconsin Alumni Research Foundation, priority 2000, dated 2003).
Values belong to the molecule of their own block, whether it stands above or below them.

Tests used:
[1] = Clearance and distribution of inhaled tracer in test subjects; assay type: in vivo
Description: Positron emitting ^17F (Eβ^+(max)=1.74 MeV; t½≈64 seconds) has an ideal half life for probing such diverse processes as gray matter cerebral activity or gas-phase reactions on an industrial scale. Because of the very short half life of ^17F, tracers labeled with this isotope such as ^17F labeled fluoromethane provide very short half life cerebral blood flow agents that have important application in PET studies of seizure and other transient brain phenomena. The shorter half life of ^17F with respect to ^15O permits repeat images to be obtained twice as fast with ^17F labeled tracers as compared to ^15O labeled tracers such as water which is presently in wide use as a tracer as described above. The ability to scan twice as fast using ^17F labeled tracers allows more data to be collected in the same amount of time and should allow more test subjects to be evaluated using instruments that are currently in high demand. Additionally, ^17F labeled tracers show improved signal to noise level ratios over ^15O labeled tracers providing increased sensitivity. ^15O tracers such as ^15O labeled water are usually administered in a manner that is more invasive than are tracers such as ^17F labeled fluoromethane. For example, ^15O labeled tracers are usually administered by injection and arterial measurements are then made from an arterial cannulation. On the other hand, ^17F labeled tracers such as fluoromethane may be administered by having a test subject inhale the tracer, and arterial measurements can be made from exhalations.
FIG. 5 is a gas chromatograph (Porpak Q column; He carrier gas; thermal conductivity detector, electrochemical detector, and positron coincidence radiation detector) showing the radiochemical purity of ^17F labeled fluoromethane produced by the present invention. The radiochemical purity of the ^17F labeled fluoromethane was determined to be 91 percent with only ^17F labeled CF4 from the target as a radiochemical impurity. […] Thus, the presence of CF4 only impacts the dosimetry to the lungs and trachea.

[2] = cited from earlier work

SMILES: FC(F)(F)F [CF4]
distribution into blood when inhaled ([1]; inhaled as tracer impurity, only impacts dosimetry to lungs and trachea): stays out of the blood

SMILES: [15OH2] [^15O labeled water]
permeability surface product ([2]; at high flows the signal is reduced): relatively low
clearance from test subjects ([2]; usually administered by injection): slow to clear

clearance ([1]; by exhalation): rapidly cleared by exhalation
biological half life ([1]; in vivo): quite short
SMILES: C[17F] [^17F labeled fluoromethane]
